This is an account of results in ChEMBL document CHEMBL1201862, “PubChem BioAssay data set” (2004).

As a reminder, the GI50 is the concentration at which growth is held to half of that of the control.

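Exposure lasted 48 hours, with cells grown in 96-well plates and compounds tested at five concentrations. GI50 marks 50% less growth.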 Activity calls are given as the source filed them. No stated cut-off is given here; in the data, active = GI50 up to about 1.1 µM and inactive = higher. Bounds are passed on as bounds.

Among the test systems are KM12; HOP-62; SK-MEL-28; NCI-H522; SR; MDA-N; EKVX; HCT-15; OVCAR-8; HOP-92; HL-60; NCI-H23; U-251; NCI-H460; SN12C; SW-620; SK-OV-3; HT-29; LOX IMVI; T47D.
Holding throughout (experiment): DTP human tumour cell line panel, 48 h

Take `Cc1nc2c(O)cccc2c(=O)[nH]1`: the GI50 in the test on KM12 was 332 µM (inactive); with HOP-62, 437 µM (inactive); with SK-MEL-28, > 1000 µM (inactive); in the test with NCI-H522, 356 µM (inactive); with SR it was 114 µM (inactive); in the test with MDA-N, 504 µM (inactive). The GI50 is 456 µM (inactive) in the test on EKVX; 270 µM in the test on HCT-15; 437 µM (inactive) with OVCAR-8; 845 µM (inactive) with HOP-92; 174 µM (inactive) in the test with HL-60; 303 µM (inactive) with NCI-H23. In addition, the GI50 with U-251 was 670 µM (inactive); in the test with NCI-H460, 263 µM (inactive); in the test on SN12C, 532 µM (inactive); in the test on SW-620, > 1000 µM (inactive); in the test on SK-OV-3, 348 µM (inactive); in the test on HT-29 it was 345 µM (inactive). Also, the GI50 with LOX IMVI is 485 µM (inactive).

Turning to `COC(=O)C(NC(=O)C(CC(=O)OC(C)(C)C)NC(=O)OC(C)(C)C)C(O)c1ccccc1` (stereo not drawn), the GI50 in the test on KM12, in the test on HOP-62, in the test with SK-MEL-28, in the test on NCI-H522, in the test on MDA-N and with EKVX was > 100 µM (inactive) in each case. Also, the GI50 in the test on HCT-15 is greater than 100 µM; in the test with OVCAR-8, > 100 µM (inactive); with T47D, > 100 µM (inactive); in the test on NCI-H23 it was > 100 µM (inactive); in the test with U-251, > 100 µM (inactive); in the test on NCI-H460, > 100 µM (inactive). For the same compound, the GI50 with SN12C was > 100 µM (inactive); in the test with SW-620 it was > 100 µM (inactive); with SK-OV-3 it was 16.1 µM (inactive); in the test on HT-29 it was > 100 µM (inactive); with LOX IMVI, > 100 µM (inactive).

Regarding `O=C1NC(=O)/C(=C\c2ccncc2)N1`, the GI50 was > 100 µM (inactive) in the test with KM12; > 100 µM (inactive) in the test with HOP-62; > 100 µM (inactive) in the test with SK-MEL-28; > 100 µM (inactive) in the test with MDA-N; > 100 µM (inactive) in the test on EKVX; greater than 100 µM with HCT-15. Also, the GI50 in the test on OVCAR-8 is > 100 µM (inactive); in the test on T47D, > 100 µM (inactive); in the test on HOP-92, > 100 µM (inactive); with HL-60 it was > 10 µM (inactive); in the test on NCI-H23, > 100 µM (inactive); in the test with U-251 it was > 100 µM (inactive). Also, the GI50 in the test on NCI-H460, in the test on SN12C, with SW-620, in the test with SK-OV-3, in the test with HT-29 and with LOX IMVI was > 100 µM (inactive) throughout.

`O=C(CC(=O)N1N=C(N(c2ccccc2)c2ccccc2)CC1c1ccccc1)Nc1ccccc1` (stereo not drawn): the GI50 with KM12 was > 100 µM (inactive); in the test on HOP-62, 48.5 µM (inactive); in the test on SK-MEL-28 it was > 100 µM (inactive); in the test with NCI-H522 it was 64.1 µM (inactive); in the test with SR it was 37.7 µM (inactive); in the test with EKVX, > 100 µM (inactive). Further, the GI50 in the test with HCT-15 is greater than 100 µM; in the test on OVCAR-8, > 100 µM (inactive); with T47D, > 100 µM (inactive); with HOP-92, > 100 µM (inactive); with HL-60, > 100 µM (inactive); in the test with NCI-H23 it was > 100 µM (inactive). Further, the GI50 with U-251 is 56.6 µM (inactive); with NCI-H460, > 100 µM (inactive); with SW-620, > 100 µM (inactive); with SK-OV-3 it was 80.9 µM (inactive); in the test with HT-29, > 100 µM (inactive).

For `N#Cc1c(-c2ccccc2)c(/C=N/c2ccc(F)cc2)c(=O)n2c1[nH]c1ccccc12`, the GI50 is 29.6 µM (inactive) in the test with KM12; 2.95 µM (inactive) with HOP-62; 37.1 µM (inactive) in the test on SK-MEL-28; 16 µM (inactive) in the test with NCI-H522; 10.4 µM (inactive) in the test with MDA-N; 19.8 µM (inactive) in the test with EKVX. The GI50 was 19.7 µM in the test with HCT-15; 34.2 µM (inactive) in the test on OVCAR-8; 27.7 µM (inactive) with T47D; 37 µM (inactive) with NCI-H23; 46.7 µM (inactive) with U-251; 17.8 µM (inactive) with NCI-H460. Besides, the GI50 in the test on SN12C is 22.4 µM (inactive); in the test on SW-620, 29.5 µM (inactive); in the test on SK-OV-3, 36.3 µM (inactive); in the test with LOX IMVI, 23.8 µM (inactive).

Turning to `CC(C)OC(=O)[C@H]1ON2O[C@H](O[C@@H]3CCCC[C@H]3c3ccccc3)C([Si](C)(C)c3ccccc3)[C@H]3OC(=O)[C@@H]1C32` (stereo partly drawn), the GI50 in the test on KM12 was > 100 µM (inactive); in the test on HOP-62, > 100 µM (inactive); in the test on SK-MEL-28 it was > 100 µM (inactive); in the test on NCI-H522 it was 81.3 µM (inactive); in the test on SR, 21.2 µM (inactive); in the test on EKVX, > 100 µM (inactive). Also, the GI50 is greater than 100 µM in the test with HCT-15; > 100 µM (inactive) with OVCAR-8; 87.5 µM (inactive) in the test on T47D; > 100 µM (inactive) in the test on HOP-92; > 100 µM (inactive) with HL-60; > 100 µM (inactive) in the test on NCI-H23. Besides, the GI50 in the test with U-251, in the test on NCI-H460, in the test with SN12C, in the test with SW-620, with SK-OV-3 and in the test with HT-29 was > 100 µM (inactive) each time. Also, in the test with LOX IMVI, the GI50 was > 100 µM (inactive).

For the compound `O=C1OCC2=Nc3cccc4cccc(c34)N12`, the GI50 in the test on KM12 is > 100 µM (inactive); with HOP-62, > 100 µM (inactive); with SK-MEL-28, > 100 µM (inactive); in the test with NCI-H522, 88.9 µM (inactive); in the test with SR it was > 100 µM (inactive); in the test on EKVX it was 57.1 µM (inactive). Also, the GI50 in the test with HCT-15 was greater than 100 µM; with OVCAR-8 it was > 100 µM (inactive); in the test with T47D, > 100 µM (inactive); with HOP-92 it was < 0.01 µM (active); in the test with HL-60, > 100 µM (inactive); with NCI-H23 it was > 100 µM (inactive). Also, the GI50 in the test with U-251, with NCI-H460, in the test on SN12C, in the test on SW-620, with SK-OV-3 and in the test with HT-29 was > 100 µM (inactive) in each case. Besides, the GI50 with LOX IMVI is > 100 µM (inactive).

For `CC1(C)C2CCC(CN)(C2)C1N` (stereo not drawn), the GI50 in the test on KM12 is > 100 µM (inactive); in the test on HOP-62 it was > 100 µM (inactive); in the test on SK-MEL-28, > 100 µM (inactive); with MDA-N it was > 100 µM (inactive); in the test with EKVX it was > 100 µM (inactive); in the test on HCT-15 it was greater than 100 µM. The GI50 in the test with OVCAR-8, with T47D, in the test with HOP-92, in the test on HL-60, in the test with NCI-H23 and in the test on U-251 was > 100 µM (inactive) throughout. Further, the GI50 with NCI-H460 was 4.49 µM (inactive); in the test on SN12C it was > 100 µM (inactive); with SW-620, > 100 µM (inactive); in the test with SK-OV-3, > 100 µM (inactive); in the test with HT-29, > 100 µM (inactive); in the test on LOX IMVI, > 100 µM (inactive).

With `N#CCCC(CC#N)N1CCN(CCO)CC1` (stereo not drawn), the GI50 is > 100 µM (inactive) in the test with KM12; > 100 µM (inactive) in the test with HOP-62; > 100 µM (inactive) with SK-MEL-28; > 100 µM (inactive) with SR; > 100 µM (inactive) in the test with EKVX; greater than 100 µM in the test on HCT-15. Besides, the GI50 in the test with OVCAR-8, in the test on T47D, with HOP-92, in the test on HL-60, in the test with NCI-H23 and with U-251 was > 100 µM (inactive) throughout. The GI50 with NCI-H460, with SN12C, in the test with SW-620, in the test with SK-OV-3 and in the test on HT-29 was > 100 µM (inactive) in each case.

`COc1cc2c(cc1OC)-c1[nH]c3ccc(C#N)cc3c1CC(=O)N2`: the GI50 in the test with KM12 is 1.71 µM (inactive); in the test on HOP-62, 3.86 µM (inactive); in the test with SK-MEL-28, > 26.3 µM (inactive); in the test on MDA-N it was 2.48 µM (inactive); in the test on EKVX, 22.2 µM (inactive); in the test on HCT-15, 4.02 µM. Also, the GI50 in the test on OVCAR-8 is 4.2 µM (inactive); with T47D, > 100 µM (inactive); with HOP-92, > 100 µM (inactive); in the test with HL-60 it was 3.07 µM (inactive); in the test on NCI-H23 it was 12.2 µM (inactive); in the test on U-251, 2.61 µM (inactive). Besides, the GI50 in the test on NCI-H460 was 5.31 µM (inactive); in the test on SN12C it was 5.04 µM (inactive); in the test on SW-620 it was 1.03 µM (active); in the test with SK-OV-3, > 100 µM (inactive); in the test on HT-29, 3.88 µM (inactive); in the test on LOX IMVI it was 2.09 µM (inactive).

In the case of `COc1ccc2c(c1)/C(=C\c1cccc(/C=C3/C(=O)Nc4ccc(OC)cc43)n1)C(=O)N2`, the GI50 in the test with KM12 was 1.78 µM (inactive); with HOP-62, 1.55 µM (inactive); with NCI-H522, 0.861 µM (active); in the test on EKVX, 2.84 µM (inactive); with HCT-15 it was 1.56 µM; with OVCAR-8, 1.17 µM (inactive). The GI50 was 0.381 µM (active) in the test with T47D; 2.25 µM (inactive) in the test with HOP-92; 0.506 µM (active) in the test with HL-60; 0.925 µM (active) with NCI-H23; 0.461 µM (active) in the test with U-251; 1.4 µM (inactive) in the test on NCI-H460. Further, the values for the GI50 in the test on SN12C, in the test with SW-620 and with SK-OV-3 were 0.757 µM (active), 0.982 µM (active) and 2.02 µM (inactive), respectively.
